The values below come from ChEMBL document CHEMBL5380859, “Bioactivity-Driven Synthesis of the Marine Natural Product Naamidine J and Its Derivatives as Potential Tumor Immunological Agents by Inhibiting Programmed Death-Ligand 1” (J Med Chem, 2023).

Activity calls are given as the source filed them. The calls are words filed in the database; no cut-off is given here.

Data set [1] has as its system RKO. The data set is described as follows: Downregulation of PD-L1 expression level in human RKO cells at 10 uM incubated for 24 hrs by Western blot analysis. The data set is classed as functional, cell-based. (Immunoblotting shows a protein as a band on a membrane.)
For data set [2], the system named is RKO. The data set is described as follows: Cytotoxicity against human RKO cells assessed as reduction in cell viability after 24 hrs by CCK8 assay. The data set is classed as functional, cell-based. Background: Tetrazolium dyes change colour on reduction, which living cells bring about.
Data set [3] concerns RKO. Description: Antitumor activity in human RKO cells cocultured with […] assessed as induction of T-cell mediated cell killing at 10 uM incubated for 24 hrs by crystal violet staining method. In kind it is functional, cell-based.
Data set [4] has as its system MC-38. The data set is described as follows: Antitumor activity against mouse MC38 cells implanted in C57BL/6 mouse assessed as upregulation of cleaved caspase 3 at 50 mg/kg, ip administered once daily and measured after 16 days by immunohistochemistry analysis. In kind it is functional, organism-based. To be noted: time 16.0 day.
The target in data set [5] is Programmed cell death 1 ligand 1 (Homo sapiens) (UniProt Q9NZQ7). The data set is described as follows: Induction of PD-L1 degradation in human RKO cells at 5 uM in presence of CQ incubated for 24 hrs by Western blot analysis. In kind it is cell-based.
The test system of data set [6] is RKO. Description: Downregulation of PD-L1 expression level in human RKO cells incubated for 24 hrs by Western blot analysis. In kind it is functional, cell-based. Conditions: dose 1-10 µM.
The test system of data set [7] is MC-38. The data set is described as follows: Antitumor activity against mouse MC38 cells implanted in C57BL/6J mouse assessed as increase in number of CD8 positive T cells at 50 mg/kg, ip administered once daily for 16 days by flow cytometry analysis. The data set is classed as functional, organism-based. To be noted: time 16.0 day. For orientation: A flow cytometer gives signals particle by particle.

Data set [8] relates to RKO. Description: Downregulation of PD-L1 expression level in human RKO cells assessed as turnover rate at 5 uM incubated for 12 hrs in presence of CHX by immunoblotting analysis. In kind it is functional, cell-based.
The subject of data set [9] is MC-38. Description: Antitumor activity against mouse MC38 cells implanted in C57BL/6 mouse assessed as downregulation of FOXP3 expression at 50 mg/kg, ip administered once daily and measured after 16 days by immunohistochemistry analysis. Conditions: time 16.0 day. The data set is classed as functional, organism-based.
Data set [10] relates to MC-38. Description: Antitumor activity against mouse MC38 cells implanted in C57BL/6 mouse assessed as upregulation of CD3 expression at 50 mg/kg, ip administered once daily and measured after 16 days by immunohistochemistry analysis. In kind it is functional, organism-based. To be noted: time 16.0 day.
Data set [11] relates to MC-38. Description: Antitumor activity against mouse MC38 cells implanted in C57BL/6 mouse assessed as reduction in tumor growth at 25 mg/kg, ip administered once daily for 16 days. The data set is classed as functional, organism-based. To be noted: time 16.0 day.
In data set [12] the test system is MC-38. Description: Antitumor activity against mouse MC38 cells implanted in C57BL/6J mouse assessed as as increase in ratio of CD8 positive T cells to CD4 positive T cells at 50 mg/kg, ip administered once daily for 16 days by flow cytometry analysis. Conditions: time 16.0 day. The data set is classed as functional, organism-based.
In data set [13] the test system is MC-38. Description: Antitumor activity against mouse MC38 cells implanted in C57BL/6 mouse assessed as downregulation of PD-L1 expression at 50 mg/kg, ip administered once daily and measured after 16 days by immunohistochemistry analysis. In kind it is functional, organism-based. To be noted: time 16.0 day.
Data set [14] deals with RKO. The data set is described as follows: Downregulation of PD-L1 expression level in human RKO cells at 1 to 10 uM by Western blot analysis. The data set is classed as functional, cell-based. Conditions: dose 1-10 µM, time 3-24 hrs, TDE = time-dependent effect.
The subject of data set [15] is MC-38. Description: Antitumor activity against mouse MC38 cells implanted in C57BL/6 mouse assessed as reduction in tumor weight at 50 mg/kg, ip administered once daily for 16 days and measured for every 2 days. In kind it is functional, organism-based. Conditions: time 16.0 day.
Data set [16] has as its target Programmed cell death 1 ligand 1 (Homo sapiens) (UniProt Q9NZQ7). The data set is described as follows: Induction of PD-L1 degradation in human RKO cells at 5 uM in presence of 3-MA incubated for 24 hrs by Western blot analysis. The data set is classed as cell-based.
For data set [17], the system named is RKO. Description: Effect on PD-L1 mRNA level in human RKO cells at 1 to 10 uM by qRT-PCR analysis. In kind it is functional, cell-based. To be noted: dose 1-10 µM.
Data set [18] has as its target Programmed cell death 1 ligand 1 (Homo sapiens) (UniProt Q9NZQ7). The data set is described as follows: Induction of PD-L1 degradation in human RKO cells at 5 uM in presence of MG132 incubated for 24 hrs by Western blot analysis. In kind it is cell-based.
The nature of data set [19]: Toxicity in C57BL/6 mouse implanted with mouse MC38 cells assessed as change in body weight at 50 mg/kg, ip administered once daily for 16 days and measured every 2 days. The data set is classed as organism-based, MC-38. Conditions: in vivo, 384 h, time 16 day.
Data set [20] has as its system MC-38. Description: Antitumor activity against mouse MC38 cells implanted in C57BL/6 mouse assessed as inhibition of tumor size at 50 mg/kg, ip administered once daily for 16 days. The data set is classed as functional. To be noted: MC-38, 384 h, time 16 day.
Data set [21] relates to MC-38. Description: Antitumor activity against mouse MC38 cells implanted in C57BL/6 mouse assessed as reduction in tumor growth at 50 mg/kg, ip administered once daily for 16 days. The data set is classed as functional, organism-based. To be noted: time 16.0 day.

Sequence of Programmed cell death 1 ligand 1 (Homo sapiens) (Q9NZQ7 whole entry): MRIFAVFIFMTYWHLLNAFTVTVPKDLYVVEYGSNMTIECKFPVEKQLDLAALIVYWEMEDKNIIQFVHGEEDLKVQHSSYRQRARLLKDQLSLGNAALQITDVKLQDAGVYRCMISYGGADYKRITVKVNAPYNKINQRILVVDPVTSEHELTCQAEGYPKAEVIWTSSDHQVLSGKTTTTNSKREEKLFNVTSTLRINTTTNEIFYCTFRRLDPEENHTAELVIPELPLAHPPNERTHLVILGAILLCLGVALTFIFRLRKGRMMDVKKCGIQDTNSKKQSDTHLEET

For `COc1ccc(Cc2nc(NC(=O)c3cccc(NC(=O)CN(C)C)c3)n(C)c2Cc2ccc(OC)c(OC)c2)cc1`, in [1], the outcome was Active. In addition, the IC50 in data set [2] came to 5.3 µM.
As for `COc1ccc(Cc2nc(NC(=O)c3sc(C)nc3C(F)(F)F)n(C)c2Cc2ccc(OC)c(OC)c2)cc1`, the result in data set [1] was Active. Besides, the IC50 in data set [2] is 30.8 µM.
Consider `COC(=O)C12CCC(C(=O)Nc3nc(Cc4ccc(OC)cc4)c(Cc4ccc(OC)c(OC)c4)n3C)(CC1)CC2`, for which the half-maximal inhibitory concentration (IC50) in data set [2] came to 14.6 µM.
The same measure, in the same setting: the same measure for `CCCCC(=O)Nc1nc(Cc2ccc(OC)cc2)c(Cc2ccc(OC)c(OC)c2)n1C`: greater than 40 µM.
For `COc1ccc(Cc2nc(NC(=O)c3ccccc3)n(C)c2Cc2ccc(OC)c(OC)c2)cc1`, the IC50 in data set [2] is greater than 40 µM.
Regarding `COc1ccc(Cc2nc(NC(=O)c3ccc(NC(=O)OC(C)(C)C)cc3)n(C)c2Cc2ccc(OC)c(OC)c2)cc1`, the IC50 in [2] came out at 22.4 µM.
Take `CNc1cccc(C(=O)Nc2nc(Cc3ccc(OC)cc3)c(Cc3ccc(OC)c(OC)c3)n2C)c1`: in [2], the IC50 was greater than 40 µM.
As for `COc1ccc(Cc2nc(NC(=O)c3cccc(NC(=O)OC(C)(C)C)c3)n(C)c2Cc2ccc(OC)c(OC)c2)cc1`, the outcome in data set [3], in data set [4], in [5], in [7], in data set [9] and in [1] was Active. For the same compound, the result in data set [10], in data set [12], in [13], in data set [15], in data set [18] and in [21] was Active. In addition, the figures for the Activity entry in data set [6], in data set [14] and in data set [19] were “Dose-Dependent Effect”, “Tde” and “Non-Toxic”, respectively. The outcome in data set [8], in data set [11], in data set [16] and in data set [17] was inactive. The IC50 in data set [2] amounted to 31.7 µM. Besides, the inhibition in vivo at 50 mg/kg in [20] was 45%.
For `COc1ccc(Cc2nc(NC(=O)c3ccc(OC(F)(F)F)cc3)n(C)c2Cc2ccc(OC)c(OC)c2)cc1`, in data set [1], the result was Active. Further, the IC50 in [2] stood at 23.9 µM.
For `COc1ccc(Cc2nc(NC(=O)c3ccccc3O)n(C)c2Cc2ccc(OC)c(OC)c2)cc1` the same measures were “Active” and greater than 40 µM.
As to `COc1ccc(Cc2nc(NC(=O)c3cc(Br)ccc3O)n(C)c2Cc2ccc(OC)c(OC)c2)cc1`, the half-inhibitory concentration (IC50) in data set [2] worked out at 20.4 µM.
With `COc1ccc(Cc2nc(NC(=O)C34C[C@H]5C[C@H](C3)C[C@@H](C4)C5)n(C)c2Cc2ccc(OC)c(OC)c2)cc1`, the outcome in [1] was Active. Further, the IC50 in [2] came out at 25.7 µM.
On to `COc1ccc(Cc2nc(NC(=O)c3cccc(N(C)C)c3)n(C)c2Cc2ccc(OC)c(OC)c2)cc1`, for which the IC50 in data set [2] was greater than 40 µM.
Turning to `COc1ccc(Cc2nc(NC(=O)c3ccc(C(C)=O)cc3)n(C)c2Cc2ccc(OC)c(OC)c2)cc1`, the IC50 in data set [2] came to 26.9 µM.
Take `COc1ccc(Cc2nc(NC(=O)C3CCOCC3)n(C)c2Cc2ccc(OC)c(OC)c2)cc1`: in data set [1], the result was Active. Besides, the IC50 in data set [2] amounted to 33.3 µM.
In the same order, the values of `CNC(=O)Nc1nc(Cc2ccc(OC)cc2)c(Cc2ccc(OC)c(OC)c2)n1C` are “Active” and 24.2 µM.
Regarding `COc1ccc(Cc2nc(NC(=O)c3ccco3)n(C)c2Cc2ccc(OC)c(OC)c2)cc1`, the outcome in data set [1] was Active. The IC50 in [2] was 29.5 µM.
Turning to `COc1ccc(Cc2nc(NC(=O)c3ccc(F)cc3)n(C)c2Cc2ccc(OC)c(OC)c2)cc1`, in data set [2], the IC50 was greater than 40 µM.
With `COc1ccc(Cc2nc(NC(=O)C3CC4(C3)CC(F)(F)C4)n(C)c2Cc2ccc(OC)c(OC)c2)cc1`, in data set [2], the half-inhibitory concentration (IC50) was greater than 40 µM.
With `CCCCC(=O)Nc1cccc(C(=O)Nc2nc(Cc3ccc(OC)cc3)c(Cc3ccc(OC)c(OC)c3)n2C)c1`, the outcome in data set [1] was Active. Also, the IC50 in data set [2] came out at 5.2 µM.
As to `COc1ccc(Cc2nc(NC(=O)C3CCCCC3)n(C)c2Cc2ccc(OC)c(OC)c2)cc1`, the IC50 in data set [2] was greater than 40 µM.
Consider `COc1ccc(Cc2nc(NC(=O)c3ccc(N)cc3)n(C)c2Cc2ccc(OC)c(OC)c2)cc1`, for which the IC50 in [2] was determined as 24.9 µM.
In the case of `COc1ccc(Cc2nc(NC(=O)c3cc(OC)cc(OC)c3)n(C)c2Cc2ccc(OC)c(OC)c2)cc1`, the IC50 in [2] was greater than 40 µM.
Same read-out and setting: the same measure for `COc1ccc(Cc2nc(NC(=O)c3cccc(NC(C)=O)c3)n(C)c2Cc2ccc(OC)c(OC)c2)cc1`: greater than 40 µM; for `COc1ccc(Cc2nc(NC(=O)c3cccc(N)c3)n(C)c2Cc2ccc(OC)c(OC)c2)cc1`: 20.1 µM.

Usually IC50 stands for the concentration that inhibits the measured activity by half. Broadly, the inhibition in vivo is the percentage by which the read-out fell short of the control.
